Measured values: patent publication US5366975A, “Invertebrate phenylethanolamine transporter and the use thereof” (priority 1992, dated 1994)
Structures can show the parent of a compound that is named as a salt. Where two headings read alike, the source gives them in different places.

Columns and labels:
[1] = test system: tobacco hornworms (Manducca sexta); design: species or system Manduca sexta; conditions: in vivo
adenylate cyclase = conditions: cockroach, a resistant species; cited from earlier work
Gs -coupled OA receptors = conditions: Manduca, a sensitive species; cited from earlier work
firefly lantern = experiment: Firefly lantern assay (OA-stimulated light emission); format: in vivo, P. pyralis; conditions: fixed dose of cocaine injected simultaneously with OA into isolated firefly tails; zero Ca++/high Mn++
Text: To measure the effects of drugs on firefly light emission, an isolated tail (terminal 3 abdominal segments containing the light organ) of a fresh adult P. pyralis male was mounted on a […] stainless steel needle and placed at the focal point of an optical system connected to a photometer-photomultiplier-chart recorder combination (see Nathanson, J. A., Characterization of octopamine-sensitive adenylate cyclase: Development of a potent and selective class of octopamine-2 receptor agonists with toxic effects in insects, Proc. Natl. Acad. Sci. U.S.A. 82: 599-603 (1985)). Drug (dissolved in insect saline, see Carlson, A.D., Effect of adrenergic drugs on the lantern of the larvae of the Photinus firefly, J. Exp. Biol. 48: 381-387 (1968)) was injected (3-5 μl) into the abdominal cavity dorsal to the lantern and light emission was recorded for 45 minutes or until it peaked, following which the next (larger) dose of drug was injected. In the case of animals injected with drugs other than octopamine, following the last dose, […] of octopamine (a maximally effective dose) was injected. Light production is expressed as radiance, each unit approximately equal to 1.6 nanowatts, as measured in a solid angle of 0.033 steradiants. […]

mosquito larvae = experiment: Antilarval activity on mosquito larvae; format: in vivo
Method: Five to ten 2-5-day old mosquito larvae, reared from eggs, were placed in small bottles containing 3 ml of water, 2 ml of air space, and a perforated cap open to the air. The compound of interest was dissolved in water or appropriate solvent and added to make a final concentration of from 0.00001 to 1%. The bottles were capped and observed at daily intervals for the number of living larvae, pupae, and emerging adults. After two weeks, the final number of adults emerging as a percentage, relative to control, is plotted as a function of drug concentration.

[2] = test system: octopamine reuptake transporter; format: cell-based, Blaberus; conditions: 100 μM cocaine; ±S.E.M. of triplicate determinations; control 13.6±1.7
[3] = test system: octopamine reuptake transporter; format: biochemical, cockroach
Manducca eggs = experiment: Ovicidal assay; format: in vivo, Manduca sexta; conditions: 3% cocaine
Method: Test agents were tested for ovicidal activity by dipping groups of 10-50 Manducca eggs in drug solutions for 60 seconds and then determining the percentage of eggs which produced viable larvae. Alternatively, the eggs may be sprayed with the test agent and then placed on artificial media to hatch. A compound with active ovicidal activity was one which decreased the percentage of eggs hatched, relative to control.

Row | Compound | % leaf remaining [1] [%] | RANK ORDER ANTIFEEDING EFFECT IN MANDUCA [1] | antifeeding effect [1] | other results
1 | 1-(2-[bis-(4-fluorophenyl)methoxy]ethyl)-4-(3-phenyl-2-propenyl)piperazine [GBR 12909] | ~95 | GBR > COC = DMI = AMT > DSP = XYL = | – | –
2 | NCCc1c[nH]c2ccc(O)cc12 [5-HT, serotonin] | – | – | – | antifeeding effect compared to OA [1]: significantly weaker than OA
3 | CN(C)CCC=C1c2ccccc2CCc2ccccc21 [AMT, amitriptyline] | ~100 | GBR > COC = DMI = AMT > DSP = XYL = | – | –
4 | NCCc1ccc(O)c(O)c1 [DA, dopamine] | – | – | no antifeeding effects | antifeeding effect of addition to cocaine [1]: no further increase in antifeeding effect
5 | Cc1cc(Cl)ccc1N=CN [DDCDM, didemethylchlordimeform] | – | – | – | potency in activating adenylate cyclase relative to OA (adenylate cyclase): much weaker than OA; potency relative to OA (full OA agonist) (Gs -coupled OA receptors): 20 fold
6 | CNCCCN1c2ccccc2CCc2ccccc21 [DMI, desmethylimipramine] | ~80 | GBR > COC = DMI = AMT > DSP = XYL = | – | –
7 | CCN(CCCl)Cc1ccccc1Br [DSP-4] | ~100 | GBR > COC = DMI = AMT > DSP = XYL = | – | –
8 | COC(=O)C1=CC[C@@H]2CC[C@H]1N2C [Ecgonidine methyl ester mesylate, (1 R)-8-methyl-8-azabicyclo[3,2,1]oct-2-ene-2-carboxylic acid methyl ester mesylate] | – | – | no antifeeding effect | –
9 | CN1[C@H]2CC[C@@H]1[C@@H](C(=O)O)[C@H](O)C2 [Ecgonine hydrochloride, (-)-beta-hydroxy-1-alpha-H, 5-alpha-H-tropane-2-beta-carboxlic acid hydrochloride] | – | – | no antifeeding effect | –
10 | NC[C@H](O)c1ccc(O)c(O)c1 [NE, norepinephrine] | – | – | – | antifeeding effect compared to OA [1]: significantly weaker than OA
11 | COC(=O)[C@H]1[C@@H](OC(=O)c2ccccc2)C[C@@H]2CC[C@H]1N2C [cocaine] | – | GBR > COC = DMI = AMT > DSP = XYL = | – | leftward shift in the OA dose-response curve (factor) (firefly lantern): about 10; percent larvae surviving to mature adulthood (mosquito larvae; 0.01% cocaine in water): approximately 50%; adults produced (mosquito larvae; 0.1% cocaine in water): no adults were produced; total uptake of octopamine [2]: 9.6 ±1.4 pmol/mg protein; inhibition of sodium-dependent octopamine uptake ([3]; 10 μM cocaine): about 25%; inhibition of sodium-dependent octopamine uptake ([3]; 100 μM cocaine): about 68%; percent dead ova (Manducca eggs): greater than 95%; behavior of larvae on sprayed leaves [1]: marked behavioral abnormalities; time after which animals died [1]: 48 to 72 h
12 | CN1CCC(=C2c3ccccc3C=Cc3ccccc32)CC1 [cyproheptadine] | ~55 | – | – | –
13 | CNCCC(Oc1ccc(C(F)(F)F)cc1)c1ccccc1 (stereo not drawn) [fluoxetine] | ~85 | FLUOX >>MAZ | – | –
14 | CCN(CC)CC(=O)Nc1c(C)cccc1C [lidocaine] | – | – | – | antifeeding inhibition [1]: 15%
15 | OC1(c2ccc(Cl)cc2)c2ccccc2C2=NCCN21 (stereo not drawn) [mazindol] | – | FLUOX >>MAZ | no antifeeding activity | –
16 | CCN(CC)CCOC(=O)c1ccc(N)cc1 [procaine] | – | – | only lidocaine showed any activity | –
